Measured values published in patent US5292742A, “Angiotensin II receptor blocking 2,3,6 substituted quinazolinones” (American Cyanamid Company, priority 1993, dated 1994).
Several values for one entry are separate records, joined by “and”; a condition that tells them apart may be missing. Equal entries are not always repeated.

System: angiotensin II (AII) vasopressor response
Experiment: AII challenge: inhibition of angiotensin II vasopressor response in conscious spontaneously hypertensive rats
Assay type: in vivo, rat (Okamoto-Aoki SHR)
Details: 3 mg/kg IV; for % Inhibition (angiotensin blockage) of AII vasopressor response / Average Change (increase in systolic blood pressure after AII): SHR n = 2; for Change (increase in systolic blood pressure after AII), individual rat / Response After AII (systolic blood pressure), individual rat / Control Before AII (systolic blood pressure), individual rat: individual SHR
Description: By administering a compound of this invention to a rat, and then challenging with angiotensin II, a blockage of the vasopressor response is realized.
Conscious Male Okamoto-Aoki SHR, 16-20 weeks old, weighing approximately 330 g are purchased from Charles River Labs (Wilmington, Mass.). Conscious rats are restrained in a supine position with elastic tape. The area at the base of the tail is locally anesthetized by subcutaneous infiltration with 2% procaine. The ventral caudal artery and vein are isolated, and a cannula made of polyethylene (PE) 10-20 tubing (fused together by heat) is passed into the lower abdominal aorta and vena cava, respectively. The cannula is secured, heparinized (1,000 I.U./ml), sealed and the wound is closed. The animals are placed in plastio restraininq cages in an upright position. The cannula is attached to a Statham P23Db pressure transducer, and pulsatile blood pressure is recorded to 10-15 minutes with a Gould Brush recorder. (Chan et al., (Drug Development Res., 18:75-94, 1989).
Angiotensin II (human sequence, Sigma Chem. Co., St. Louis, Mo.) of 0.05 and 0.1 mcg/kg i.v. is injected into all rats (predosing response). Then a test compound, vehicle or a known angiotensin II antagonist is administered i.v., i.p. or orally to each set of rats. The two doses of angiotensin II are given to each rat again at 30, 60, 90, 120, 180, 240 and 300 minutes post dosing the compound or vehicle. The vasopressor response of angiotensin II is measured for the increase in systolic blood pressure in mmHg. The percentage of antagonism or blockade of the vasopressor response of angiotensin II by a compound is calculated using the vasopressor response (increase in systolic blood pressure) of angiotensin II of each rat predosing the compound as 100%. A compound is considered active if at 30 mg/kg i.v. it antagonized at least 50% of the response.

[1] = AII 0.05 mcg/kg IV, 30 min post dose
[2] = AII 0.05 mcg/kg IV, 60 min post dose
[3] = AII 0.05 mcg/kg IV, 90 min post dose
[4] = AII 0.05 mcg/kg IV, 120 min post dose
[5] = AII 0.05 mcg/kg IV, 180 min post dose
[6] = AII 0.05 mcg/kg IV, 240 min post dose
[7] = AII 0.05 mcg/kg IV, 300 min post dose
[8] = AII 0.1 mcg/kg IV, 30 min post dose
[9] = AII 0.1 mcg/kg IV, 60 min post dose
[10] = AII 0.1 mcg/kg IV, 90 min post dose
[11] = AII 0.1 mcg/kg IV, 120 min post dose
[12] = AII 0.1 mcg/kg IV, 180 min post dose
[13] = AII 0.1 mcg/kg IV, 240 min post dose
[14] = AII 0.1 mcg/kg IV, 300 min post dose

## CCCCc1nc2ccc(C3=NN4CCCCC4C3)cc2c(=O)n1Cc1ccc(-c2ccccc2-c2nnn[nH]2)cc1 (stereo not shown) [Example 11]
[1]
  % Inhibition (angiotensin blockage) of AII vasopressor response: 82%
  Average Change (increase in systolic blood pressure after AII): 7.5 mmHg
  Change (increase in systolic blood pressure after AII), individual rat: 10 mmHg and 5 mmHg
[2]
  % Inhibition (angiotensin blockage) of AII vasopressor response: 59%
  Average Change (increase in systolic blood pressure after AII): 17.5 mmHg
  Change (increase in systolic blood pressure after AII), individual rat: 20 mmHg and 15 mmHg
[3]
  % Inhibition (angiotensin blockage) of AII vasopressor response: 65%
  Average Change (increase in systolic blood pressure after AII): 15 mmHg
  Change (increase in systolic blood pressure after AII), individual rat: 15 mmHg
[4]
  % Inhibition (angiotensin blockage) of AII vasopressor response: 59%
  Average Change (increase in systolic blood pressure after AII): 17.5 mmHg
  Change (increase in systolic blood pressure after AII), individual rat: 20 mmHg and 15 mmHg
[5]
  % Inhibition (angiotensin blockage) of AII vasopressor response: 59%
  Average Change (increase in systolic blood pressure after AII): 17.5 mmHg
  Change (increase in systolic blood pressure after AII), individual rat: 20 mmHg and 15 mmHg
[6]
  % Inhibition (angiotensin blockage) of AII vasopressor response: 53%
  Average Change (increase in systolic blood pressure after AII): 20 mmHg
  Change (increase in systolic blood pressure after AII), individual rat: 25 mmHg and 15 mmHg
[7]
  % Inhibition (angiotensin blockage) of AII vasopressor response: 41%
  Average Change (increase in systolic blood pressure after AII): 25 mmHg
  Change (increase in systolic blood pressure after AII), individual rat: 25 mmHg
[8]
  % Inhibition (angiotensin blockage) of AII vasopressor response: 63%
  Average Change (increase in systolic blood pressure after AII): 17.5 mmHg
  Change (increase in systolic blood pressure after AII), individual rat: 20 mmHg and 15 mmHg
[9]
  % Inhibition (angiotensin blockage) of AII vasopressor response: 42%
  Average Change (increase in systolic blood pressure after AII): 27.5 mmHg
  Change (increase in systolic blood pressure after AII), individual rat: 30 mmHg and 25 mmHg
[10]
  % Inhibition (angiotensin blockage) of AII vasopressor response: 37%
  Average Change (increase in systolic blood pressure after AII): 30 mmHg
  Change (increase in systolic blood pressure after AII), individual rat: 30 mmHg
[11]
  % Inhibition (angiotensin blockage) of AII vasopressor response: 42%
  Average Change (increase in systolic blood pressure after AII): 27.5 mmHg
  Change (increase in systolic blood pressure after AII), individual rat: 30 mmHg and 25 mmHg
[12]
  % Inhibition (angiotensin blockage) of AII vasopressor response: 37%
  Average Change (increase in systolic blood pressure after AII): 30 mmHg
  Change (increase in systolic blood pressure after AII), individual rat: 25 mmHg and 35 mmHg
[13]
  % Inhibition (angiotensin blockage) of AII vasopressor response: 47%
  Average Change (increase in systolic blood pressure after AII): 25 mmHg
  Change (increase in systolic blood pressure after AII), individual rat: 20 mmHg and 30 mmHg
[14]
  % Inhibition (angiotensin blockage) of AII vasopressor response: 42%
  Average Change (increase in systolic blood pressure after AII): 27.5 mmHg
  Change (increase in systolic blood pressure after AII), individual rat: 20 mmHg and 35 mmHg
After AII 0.05 mcg/kg IV, 30 min post dose
  Response After AII (systolic blood pressure), individual rat: 240 mmHg and 225 mmHg
After AII 0.05 mcg/kg IV, 60 min post dose
  Response After AII (systolic blood pressure), individual rat: 230 mmHg
After AII 0.05 mcg/kg IV, 90 min post dose
  Response After AII (systolic blood pressure), individual rat: 215 mmHg and 225 mmHg
After AII 0.05 mcg/kg IV, 120 min post dose
  Response After AII (systolic blood pressure), individual rat: 225 mmHg
After AII 0.05 mcg/kg IV, 180 min post dose
  Response After AII (systolic blood pressure), individual rat: 230 mmHg and 225 mmHg
After AII 0.05 mcg/kg IV, 240 min post dose
  Response After AII (systolic blood pressure), individual rat: 235 mmHg and 220 mmHg
After AII 0.05 mcg/kg IV, 300 min post dose
  Response After AII (systolic blood pressure), individual rat: 240 mmHg and 230 mmHg
After AII 0.1 mcg/kg IV, 30 min post dose
  Response After AII (systolic blood pressure), individual rat: 245 mmHg and 240 mmHg
After AII 0.1 mcg/kg IV, 60 min post dose
  Response After AII (systolic blood pressure), individual rat: 230 mmHg and 250 mmHg
After AII 0.1 mcg/kg IV, 90 min post dose
  Response After AII (systolic blood pressure), individual rat: 235 mmHg and 240 mmHg
After AII 0.1 mcg/kg IV, 120 min post dose
  Response After AII (systolic blood pressure), individual rat: 230 mmHg and 235 mmHg
After AII 0.1 mcg/kg IV, 180 min post dose
  Response After AII (systolic blood pressure), individual rat: 240 mmHg and 250 mmHg
After AII 0.1 mcg/kg IV, 240 min post dose
  Response After AII (systolic blood pressure), individual rat: 245 mmHg and 240 mmHg
After AII 0.1 mcg/kg IV, 300 min post dose
  Response After AII (systolic blood pressure), individual rat: 245 mmHg
Before AII 0.05 mcg/kg IV, 30 min post dose
  Control Before AII (systolic blood pressure), individual rat: 230 mmHg and 220 mmHg
Before AII 0.05 mcg/kg IV, 60 min post dose
  Control Before AII (systolic blood pressure), individual rat: 210 mmHg and 215 mmHg
Before AII 0.05 mcg/kg IV, 90 min post dose
  Control Before AII (systolic blood pressure), individual rat: 200 mmHg and 210 mmHg
Before AII 0.05 mcg/kg IV, 120 min post dose
  Control Before AII (systolic blood pressure), individual rat: 205 mmHg and 210 mmHg
Before AII 0.05 mcg/kg IV, 180 min post dose
  Control Before AII (systolic blood pressure), individual rat: 210 mmHg
Before AII 0.05 mcg/kg IV, 240 min post dose
  Control Before AII (systolic blood pressure), individual rat: 210 mmHg and 205 mmHg
Before AII 0.05 mcg/kg IV, 300 min post dose
  Control Before AII (systolic blood pressure), individual rat: 215 mmHg and 205 mmHg
Before AII 0.1 mcg/kg IV, 30 min post dose
  Control Before AII (systolic blood pressure), individual rat: 225 mmHg
Before AII 0.1 mcg/kg IV, 60 min post dose
  Control Before AII (systolic blood pressure), individual rat: 200 mmHg and 225 mmHg
Before AII 0.1 mcg/kg IV, 90 min post dose
  Control Before AII (systolic blood pressure), individual rat: 205 mmHg and 210 mmHg
Before AII 0.1 mcg/kg IV, 120 min post dose
  Control Before AII (systolic blood pressure), individual rat: 200 mmHg and 210 mmHg
Before AII 0.1 mcg/kg IV, 180 min post dose
  Control Before AII (systolic blood pressure), individual rat: 215 mmHg
Before AII 0.1 mcg/kg IV, 240 min post dose
  Control Before AII (systolic blood pressure), individual rat: 225 mmHg and 210 mmHg
Before AII 0.1 mcg/kg IV, 300 min post dose
  Control Before AII (systolic blood pressure), individual rat: 225 mmHg and 210 mmHg
